The source of these data is ChEMBL document CHEMBL1158381, “Molecular properties of psychopharmacological drugs determining non-competitive inhibition of 5-HT3A receptors” (Eur J Med Chem, 2009).

The experiment addresses T1, 5-hydroxytryptamine receptor 3A (Homo sapiens) (UniProt P46098).
T1 sequence (whole entry): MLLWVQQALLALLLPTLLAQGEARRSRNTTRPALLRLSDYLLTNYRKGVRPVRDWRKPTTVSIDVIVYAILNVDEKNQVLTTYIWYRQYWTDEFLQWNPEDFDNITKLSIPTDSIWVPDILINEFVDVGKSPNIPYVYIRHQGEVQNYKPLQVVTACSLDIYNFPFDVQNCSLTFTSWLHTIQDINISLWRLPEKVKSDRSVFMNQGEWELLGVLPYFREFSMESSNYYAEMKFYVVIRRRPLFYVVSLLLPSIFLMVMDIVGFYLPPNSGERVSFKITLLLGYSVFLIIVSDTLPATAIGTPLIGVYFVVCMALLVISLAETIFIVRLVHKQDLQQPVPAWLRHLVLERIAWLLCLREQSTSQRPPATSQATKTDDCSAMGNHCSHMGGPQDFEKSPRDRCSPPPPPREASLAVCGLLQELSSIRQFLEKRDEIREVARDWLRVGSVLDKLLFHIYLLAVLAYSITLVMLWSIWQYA
The experiment in a line: Antagonist activity at human 5HT3A receptor expressed in HEK293 cells assessed as inhibition of serotonin-induced inward Na+ current at >= 10 uM. Format: functional, cell-based.
As usually defined, the inhibition is the relative decrease from the control value, in per cent. For `COc1ccc2c(c1)N(C[C@H](C)CN(C)C)c1ccccc1S2`, the inhibition was below 50%.

On to `CNCCCN1c2ccccc2CCc2ccccc21`, for which the inhibition was above 50%.

In the case of `OCCN1CCN(CCCN2c3ccccc3Sc3ccc(C(F)(F)F)cc32)CC1`, the inhibition was above 50%.

`O=C(NCCN1CCOCC1)c1ccc(Cl)cc1`: the inhibition is below 50%.

For the molecule `CSc1ccc2c(c1)N(CCC1CCCCN1C)c1ccccc1S2` (centres undefined), the inhibition was above 50%.

On to `CNCCC(Oc1ccc(C(F)(F)F)cc1)c1ccccc1` (centres undefined), for which the inhibition is above 50%.

In the case of `CC(CN(C)C)CN1c2ccccc2CCc2ccccc21` (centres undefined), the inhibition is above 50%.

Take `O=C(CCCN1CCC(O)(c2ccc(Cl)cc2)CC1)c1ccc(F)cc1`: the inhibition is below 50%.

Consider `c1ccc2c(c1)CCc1ccccc1C2`, for which the inhibition was below 50%.

For `NC(=O)N1c2ccccc2C=Cc2ccccc21`, the inhibition was below 50%.

As to `FC(F)(F)c1ccc2c(c1)Nc1ccccc1S2`, the inhibition was below 50%.

For the molecule `c1ccc2c(c1)Nc1ccccc1S2`, the inhibition was below 50%.

For `c1ccc2c(c1)CCc1ccccc1N2`, the inhibition is above 50%.

On to `OCCN1CCN(CCC=C2c3ccccc3Sc3ccc(C(F)(F)F)cc32)CC1`, for which the inhibition is above 50%.

On to `CCOc1ccccc1O[C@@H](c1ccccc1)[C@@H]1CNCCO1`, for which the inhibition is above 50%.

With `Cc1nc2n(c(=O)c1CCN1CCC(c3noc4cc(F)ccc34)CC1)CCCC2`, the inhibition was below 50%.

As to `c1ccc2nc3ccccc3cc2c1`, the inhibition was below 50%.

Turning to `CN(C)CCCN1c2ccccc2CCc2ccccc21`, the inhibition was above 50%.

Turning to `NC(=O)N1c2ccccc2CCc2ccccc21`, the inhibition is below 50%.
